Patent US9045401B2, “Methods for treating or ameliorating a melanoma and killing melanoma cells” (THE REGENTS OF THE UNIVERSITY OF CALIFORNIA, priority 2007, dated 2015)
Converted amounts (≈) assume the structure as drawn. “Also recorded” adds a separate entry of the source. Where two headings read alike, the source gives them in different places.

Assays:
[1] = test system: Transgenic Tg(fli1:EGFP) zebrafish embryos; experiment: blood vessel formation in zebrafish; type: in vivo; conditions: for blood vessel growth and angiogenesis: 80 nM to 3 μM in the water, dose-dependent; for viability / acute toxicity to the fish: 24 hour period of the study
Experimental: Zebrafish Experiments. Blood vessel formation in Zebrafish: Transgenic Tg(fli1:EGFP) zebrafish embryos were purchased from www.zfin.org as reported elsewhere (34). Adult fish and embryos were maintained according to “Zebrafish—A Practical Approach” (35). ScA compound in DMSO stock solution was diluted directly into the water and zebrafish intersegmental vessels were imaged using Nikon c1-si confocal microscope after the times specified. Raw image datasets were processed using IMARIS 3D™ image analysis software. All animal procedures were conducted in accordance with all appropriate regulatory standards under protocol #S06008 approved by the University of California San Diego (UCSD) Institutional Animal Care and Use Committee.

[2] = test system: NB7-C8 neuroblastoma tumor cells; experiment: neuroblastoma tumor growth on chick chorioallantoic membrane; type: in vivo; conditions: 100 picomoles ScA topically after 72 hours, harvested day 8; p<0.002; listed as ScA
Experimental: FIG. 31(A-F): Transgenic Tg(fli1:EGFP) zebrafish embryos in which GFP is expressed in endothelial cells were incubated without (A) or with increasing concentrations of ScA: 80 nM in FIG. 31(B), 160 nM in FIG. 31(C), 300 nM in FIG. 31(D) 1.6 μM in FIG. 31(E) or 3 μM in FIG. 31(F), and blood vessel morphology recorded by fluorescence microscopy. FIG. 31(G) Filter disks impregnated with 100 ng of bFGF were placed on the chorioallantoic membrane of eleven day old chicks to induce angiogenesis in the absence or presence of ScA, as shown. After 72 hours (h), disks were removed and the vascularity of the underlying chorioallantoic membrane determined by direct counting of branch points using a dissecting microscope. FIG. 31(H): NB7 neuroblastoma cells lacking caspase 8 (filled bar) or NB7-C8 cells reconstituted for caspase 8 expression (open bars) were seeded into ten day old chick chorioallantoic membranes to form tumors. After 72 hours, ScA was added topically to each growing tumor mass. Tumors were harvested and resected on day 8, and mass (wet weight) determined. Data shown is the mean±SD (N=8-12).
Tumors were then treated topically with 100 picomoles of ScA, and allowed to grow a further five days before being harvested.
Chick Chorioallantoic membrane studies. The CAM studies were performed using 10 day old chick embryos as we've previously described (36). […]

[3] = test system: M21 melanoma cells; experiment: XTT cell proliferation assay; type: cell-based; conditions: Homo sapiens, anti-proliferative effect, FIG. 6
Experimental: (§1) Cytotoxicity Assay. Cytotoxicity of ScA was assessed using the XTT cell proliferation assay. Briefly cells were plated on 96 well plates (5,000 per well) and incubated over night at 37° C. to allow for attachment and spreading. After 24 h, ScA was added from a DMSO stock, previously frozen at −80C as added directly from serial dilutions in DMSO at concentrations ranging from 100 uM to 100 fM. After 72 h, XTT (Aldrich Chemicals) was added to a final concentration of 250 ug/well. The plates were then incubated under standard tissue culture conditions until the control wells (DMSO) reached an OD value between 1.0-1.5. as measured at 450 nm using a microtiter plate reader. The cell viability-drug dilution profiles were obtained from sigma plots, and drug concentrations which inhibited growth by 50% were calculated from multiple runs. (IC50)

[4] = test system: TJK304 cells; experiment: XTT cell proliferation assay; type: cell-based; conditions: anti-proliferative effect, FIG. 6
Experimental: as §1

[5] = test system: PC3 prostate cancer cells; experiment: XTT cell proliferation assay; type: cell-based; conditions: Homo sapiens; anti-proliferative effect, FIG. 6
Experimental: as §1

[6] = test system: Molt-4 T cell leukemia cells; experiment: XTT cell proliferation assay; type: cell-based; conditions: Homo sapiens, anti-proliferative effect, FIG. 6
Experimental: as §1

[7] = test system: pancreatic metastatic mouse carcinoma cells; experiment: XTT cell proliferation assay; type: cell-based; conditions: anti-proliferative effect, FIG. 6
Experimental: as §1

[8] = test system: HUVEC primary endothelial cells; experiment: 72 h XTT assay for Huvec cell proliferation; type: cell-based, human
Experimental: FIG. 2A illustrates a microtiter plate 72 hour (h) XTT assay for Huvec cell proliferation (2500 cells/well seeded), showing serial dilutions of structurally diverse marine natural compounds. […] FIG. 2B graphically illustrates the data for this study.
as §1

[9] = test system: mouse neuro-2a neuroblastoma cells; conditions: cytotoxicity; cited from earlier work
[10] = test system: NB7 neuroblastoma cells; experiment: XTT cell proliferation assay; type: cell-based; conditions: Homo sapiens, anti-proliferative effect, FIG. 6, caspase 8 deficient
Experimental: Cell lines. Cells and cell lines were maintained in either DMEM or RPMI supplemented with 10% FCS. The caspase-deficient NB7 neuroblastoma cells have been previously described (33). C8-deficient and reconstituted jurkat cells were provided by Dr. Steve Hedrick (UCSD). Silencing of Caspase-8 gene expression in the A549 cells was performed through the use of delivering shRNA in a lentiviral format. Briefly 293 T cells were transfected with caspase-8, (Open Biosystems) or scrambled (Addgene) shRNAs in pLK0.1 lentiviral vector, together with lentiviral packaging plasmids (PMLDL, VSV-G and RSV-REV) using fugene6. The ratio of target ShRNAs and packaging plasmids was ShRNA/PMLDL/VSV-G/RSV-REV, 10/10/6/4 μg. Lentiviral supernatants from 293 T cells were harvested after 48 hours and used to infect A549 cells. Viral constructs were incubated for 24 h with A549 cell lines prior to replacing media with selective media containing puromycin (1 μg/ml). […]
Cytotoxicity Assay. Cytotoxicity of ScA was assessed using the XTT cell proliferation assay. […] The plates were then incubated under standard tissue culture conditions until the control wells (DMSO) reached an OD value between 1.0-1.5. as measured at 450 nm using a microtiter plate reader. The cell viability-drug dilution profiles were obtained from sigma plots, and drug concentrations which inhibited growth by 50% were calculated from multiple runs. […]

[11] = test system: A549 cells; experiment: confocal microscopy of ceramide and caspase 8; type: cell-based, human
Experimental: Confocal microscopy. […] After treatment, the cells were fixed 10 minutes at room temperature with 4% PFA, washed twice with PBS, permeabilized 2 minutes at room temperature with 0.1% triton in PBS and blocked for 30 minutes with sterile 2% BSA in PBS. The staining was performed at room temperature for 2 hours (h), with mouse monoclonal anti-human ceramide (Alexis) and rabbit anti-human caspase 8 (BD Pharmingen) antibodies followed by secondary goat anti-mouse ALEXA FLUOR568™ and goat anti-rabbit ALEXA FLUOR488™ antibodies (Invitrogen). The blue DNA binding dye TOPRO-3™ (Molecular Probes) was added together with the secondary antibodies. The cells were washed three times with PBS between the different incubation steps and the incubation with the secondary fluorescently labeled antibodies was performed in the dark. All antibodies were diluted in PBS. Confocal images were recorded on a Nikon ECLIPSE C1™ confocal microscope.

## C=CC/C=C/N(C)C(=O)CCCCCCCC/C=C/[C@H](CSSC[C@@H](/C=C/CCCCCCCCC(=O)N(C)/C=C/CC=C)NC(C)=O)NC(C)=O [somocystinamide A, Somocystinamide A]
[1]
  blood vessel growth and angiogenesis: potently inhibited angiogenesis
  viability / acute toxicity to the fish: without acute toxicity
[1]; listed as ScA
  blood vessel growth and angiogenesis: blocked blood vessel growth and angiogenesis
  viability / acute toxicity to the fish: all of the fish remained viable
[2]
  tumor growth / tumor mass (wet weight): significantly decreased; also recorded: inhibition of tumor growth selectively in the caspase 8-expressing tumor cells
[3]
  IC50: 1280 nM
[4]
  IC50: 830 nM
[5]
  IC50: 970 nM
[6]
  IC50: 600 nM
[7]
  IC50: 8 nM
[8]; 72 h XTT, 2500 cells/well, FIG. 2
  cytotoxicity, concentration range: cytotoxicity in the nanomolar concentration range
[8]; Homo sapiens, HUVEC, anti-proliferative effect, FIG. 6, read-out: IC50
  IC50: 0.004 nM
[8]; cultured endothelial cells, XTT 72 hours
  IC50: picomolar range
[9]
  IC50: 1.4 µg/mL (≈ 1.84 µM)
[10]
  IC50: 810 nM
[11]; 0.10 μM, 30 minutes or six hours
  colocalization of ceramide and caspase 8: induced colocalization of ceramide and caspase 8
[11]; 300 nM, 30 minutes after treatment
  cell surface ceramide: accumulation, and aggregation, of cell surface ceramide
